Measured values published in PMC7311426, “An amphipathic peptide with antibiotic activity against multidrug-resistant Gram-negative bacteria” (Nature Communications, 2020).
Values after ≈ are worked out from the molar mass of the structure shown. Where two headings read alike, the source gives them in different places. Each block holds one molecule with its values, some of them ahead of it.

Key:
C. albicans = assay: microbe, parasite or virus in culture; conditions: for BMD MIC: C. albicans ATCC 90028 NCCLS 11, mode of 6 replicates; for MIC: Candida albicans
C. neoformans = assay: microbe, parasite or virus in culture; conditions: mode of 6 replicates; for BMD MIC: C. neoformans ATCC 208821 H99; for MIC: Cryptococcus neoformans, ATCC208821, read-out: BMD MIC, C. neoformans ATCC 208821 H99
E. coli = assay: microbe, parasite or virus in culture; conditions: Escherichia coli, ATCC700926|MG1655, read-out: BMD MIC, E. coli ATCC 700926 K12 (MG1655); CAMHB; mode of 6 replicates
Method in brief: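 Broth microdilution in MHB, 2-fold 12-point series from 128 or 64 down to 0.06 or 0.03 μg mL^−1, 5 × 10^5 CFU mL^−1. Extra runs in CAMHB per CLSI and in MHB with 1% agarose; n ≥ 6.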

E. coli K12 MG1655 = assay: ATP release, BacTiter-Glo luminescence; format: cell-based, Escherichia coli; conditions: E. coli K12, X = xMIC, 24 Y values
Experimental: ATP was measured using the BacTiter-Glo^TM Microbial Cell Viability Assay (Promega) following the manufacturer’s instructions. The assay was performed for three biological replicates at 37 °C, with luminescence recorded using a Tecan Infinite M1000 Pro plate reader. The fold reduction of ATP was calculated as: Fold reduction ATP = 1 − (Ltreat − Lmedia/Lcontrol − Lmedia); where Ltreat is the luminescence of treated cells, Lmedia is the luminescence of CAMHB without cells, and Lcontrol is the luminescence of untreated cells. Resultant graphs show mean (n = 7) and std error for each data point, prepared in Prism 8. DMSO was included as a control as piperacillin was solubilized in DMSO, with final assay concentration of 2.5%.

[1] = YPD, 24 h 35 °C + resazurin 3 h
[2] = fit headed 10 min, four-parameter variable slope
[3] = fit headed 30 min, four-parameter variable slope
[4] = fit headed 60 min, four-parameter variable slope

BMD MIC (C. albicans; RPMI): 0.5 µg/mL | BMD MIC (C. albicans; YPD, 24 h 35 °C): 1 µg/mL | BMD MIC (C. neoformans; RPMI): 0.5 µg/mL | BMD MIC (C. neoformans; [1]): 0.5 µg/mL
SMILES: C[C@@H]1[C@H](O)[C@@H](C)/C=C/C=C/C=C/C=C/C=C/C=C/C=C/[C@H](O[C@@H]2O[C@H](C)[C@@H](O)[C@H](N)[C@@H]2O)C[C@@H]2O[C@](O)(C[C@@H](O)C[C@@H](O)[C@H](O)CC[C@@H](O)C[C@@H](O)CC(=O)O[C@H]1C)C[C@H](O)[C@H]2C(=O)O [Amphroterocin B, reference compound]

MIC (C. albicans; ATCC90028, 24 h, read-out: BMD MIC): 1 µg/mL (≈ 3.27 µM) | MIC (C. albicans; ATCC90028, read-out: BMD MIC): 0.5 µg/mL (≈ 1.63 µM) | MIC (C. neoformans; RPMI): 2 µg/mL (≈ 6.53 µM) | MIC (C. neoformans; [1]): 8 µg/mL
SMILES: OC(Cn1cncn1)(Cn1cncn1)c1ccc(F)cc1F [Fluconazole, reference compound]

SMILES: CCN1CCN(C(=O)N[C@@H](C(=O)N[C@@H]2C(=O)N3[C@@H]2SC(C)(C)[C@@H]3C(=O)O)c2ccccc2)C(=O)C1=O [piperacillin]
MIC (E. coli): 2 µg/mL (≈ 3.86 µM) | ATP release, nonlinear fit: HillSlope (E. coli K12 MG1655; [2]): ~ -467.9 | ATP release, nonlinear fit: IC50 (E. coli K12 MG1655; [2]): ~ 31.42 xMIC | ATP release, nonlinear fit: LogIC50 (E. coli K12 MG1655; [2]): ~ 1.497 | ATP release, nonlinear fit: Top (E. coli K12 MG1655; [2]): 0.08165 | ATP release, nonlinear fit: Bottom (E. coli K12 MG1655; fit headed 10 min, log(inhibitor) vs. response, variable slope (four parameters)): 0.04818 | ATP release, nonlinear fit: Bottom (E. coli K12 MG1655; [3]): ~ 0.04736 | ATP release, nonlinear fit: IC50 (E. coli K12 MG1655; [3]): ~ 0.000 xMIC | ATP release, nonlinear fit: Top (E. coli K12 MG1655; [3]): 0.07515 | ATP release, nonlinear fit: Bottom (E. coli K12 MG1655; [4]): 0.00107 | ATP release, nonlinear fit: HillSlope (E. coli K12 MG1655; [4]): ~ 0.6194 | ATP release, nonlinear fit: LogIC50 (E. coli K12 MG1655; [4]): ~ 16.74 | ATP release, nonlinear fit: Top (E. coli K12 MG1655; [4]): 0.1665
